We go through 15 compounds from US20240018136A1, “CDK Inhibitors And Their Use As Pharmaceuticals” (Prelude Therapeutics, Incorporated, priority 2022, published 2024).

One assay concerns the target T1, CDK4/Cyclin D1 (Homo sapiens, UniProt P11802).
T1 construct: purchased ProQinase; host or cells: insect cell
As to the kind of experiment: CDK4/CyclinD1 enzymatic activity assay (TR-FRET). It counts as biochemical. The note with it: ATP 2 mM final, read-out: CDK4_D1 IC50. As to the method: CDK4/CyclinD1 Enzymatic Activity Assay
(§1) The inhibitory activity of compounds was evaluated in vitro using TR-FRET assay with white 384-well low volume microplate (Greiner Bio-One). CDK4/Cyclin D1 catalyzed phosphorylation of peptide in the presence and absence of compounds was measured and used in IC5 determination. Recombinant protein complex CDK4/Cyclin D1, expressed from insect cell, was purchased from ProQinase. Testing compounds were dissolved in DMSO at 1 mM and tested in 9-dose IC50 mode. The reaction mixture was prepared by mixing CDK4/CyclinD1 (1 nM final), ULight-4E-BP1 (100 nM final, Perkinelmer, TRF0128-D), and ATP (2 mM final) in assay buffer (20 mM of HEPES pH 7.4, 1 mM of EGTA, 0.05% BSA, 0.005% Tween 20, and 1 mM TCEP). The compound of interest in DMSO was added to each well in 3-fold serial dilution by dispenser (TECAN D300E) to make a 9.9 μL of reaction mixture. After 20 minutes preincubation at room temperature, 0.1 μL MgCl2 (10 mM final) was added to initiate the reaction. Following a 45 minute incubation at 37° C., the reaction was stopped by addition of 2 μL of quenching buffer consisting of Lance detection buffer (Perkinelmer CR97-100C), LANCE Ultra Europium-anti-P-4E-BP1 (Perkinelmer, TRF0216-D), EDTA, and incubate at room temperature for an additional 60 minutes in the dark. The reaction signal was measured by Envision multimode plate reader (PerkinElmer, 2102-0010). IC50 values were determined by fitting the data to the standard 4 parameters with Hill Slope using GraphPad Prism software.

In another assay the target is CDK2/Cyclin E2 (Homo sapiens, UniProt P24941). Kind of assay: CDK2/CyclinE2 enzymatic activity assay (TR-FRET). It counts as biochemical. The note with it: ATP 1 mM final, read-out: CDK2_E1 IC50. The protocol: CDK2/CyclinE2 Enzymatic Activity Assay
as §1, with “Bio-One). CDK2/Cyclin E2” for “Bio-One). CDK4/Cyclin D1”, “in IC50” for “in IC5”, “complex CDK2/Cyclin E2,” for “complex CDK4/Cyclin D1,”, “mixing CDK2/CyclinE2” for “mixing CDK4/CyclinD1”, “ULight-4E-BP1 (50” for “ULight-4E-BP1 (100”, “ATP (1” for “ATP (2”

Another assay deals with OVCAR3 p-RB. Kind of assay: pRB ICW assay in OVCAR3 cells. It counts as cell-based. The settings on record: Homo sapiens, OVCAR-3, incubated with compound for 2 hours. The protocol:
pRB ICW Assay in OVCAR3 Cells
OVCAR3 cells were maintained in RPMI (Corning, Catalog #: 10-040-CV) supplemented with 10% v/v FBS (Gibco, Catalog #: 26140-079), 1% v/v Penicillin Streptomycin (Gibco, Catalog #15140-122.) OVCAR3 cells grown at log phase were trypsinized, counted, and resuspended in fresh medium to reach a final density of 6.7e4 cells/mL and 75 μL of culture were dispensed into a 384-well plate (Falcon, cat #353962) using Multidrop Combi dispenser (Thermo Scientific). The next day, compounds were dispensed as a 9-point, ½ log serial dilution using a Tecan digital dispenser (D300e), and cells were incubated with compound for 2 hours in a humidified incubator at 37° C. A reference compound at a final concentration of 10 μM was used as a control for maximum inhibition. Each compound was tested in duplicates in each experiment. At the end of the incubation, 25 μL of 16% paraformaldehyde (Electron Microscopy, cat #15710) was slowly added to each well and the plate was incubated at room temperature (RT) for 30 minutes to fix cells. Cells were then permeabilized by incubating with 50 μL/well of wash buffer (lx PBS with 0.1% Triton X-100) 5×5 minutes, followed by 1 hour blocking with 30 μL/well of Odyssey blocking buffer (Li-COR, cat #927-40000), all at RT. Anti-phosphor RB antibody (Cell signaling 8516S) was diluted 1:1000 in Odyssey blocking buffer and 20 μL was added to all wells and incubated overnight in 4° C. with gently rocking. The next day, cells were washed 5×5 min with 50 μL/well of wash buffer, followed with 1 hour incubation with secondary antibody and DRAQ5 diluted in Odyssey blocking buffer (1:500 dilution for secondary antibody and 1:2000 dilution for DRAQ5), 5×5 min washes, and one last wash with water. Plates were dried in 37° C. oven for 5 min and scanned using Li-COR Odyssey CLx imaging system to acquire intensities at 700 and 800 nm channels.

T1 sequence (P11802 whole entry): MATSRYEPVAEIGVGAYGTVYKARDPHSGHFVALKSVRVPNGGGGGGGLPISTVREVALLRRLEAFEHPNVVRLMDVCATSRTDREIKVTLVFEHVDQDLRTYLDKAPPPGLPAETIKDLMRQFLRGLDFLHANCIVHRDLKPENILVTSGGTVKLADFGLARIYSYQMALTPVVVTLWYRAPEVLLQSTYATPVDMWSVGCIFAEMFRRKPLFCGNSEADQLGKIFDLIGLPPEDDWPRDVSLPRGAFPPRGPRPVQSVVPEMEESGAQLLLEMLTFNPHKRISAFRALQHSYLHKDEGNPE
T1 sequence (P24385 whole entry partner): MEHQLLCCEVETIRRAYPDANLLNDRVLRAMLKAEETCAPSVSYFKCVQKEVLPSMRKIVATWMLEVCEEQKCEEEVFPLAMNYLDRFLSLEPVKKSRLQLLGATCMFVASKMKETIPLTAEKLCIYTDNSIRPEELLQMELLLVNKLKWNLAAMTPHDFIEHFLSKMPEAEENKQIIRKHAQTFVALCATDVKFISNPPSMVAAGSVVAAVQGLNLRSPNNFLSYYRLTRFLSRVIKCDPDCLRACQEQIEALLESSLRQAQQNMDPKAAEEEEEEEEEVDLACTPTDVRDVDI

As for `Cc1cc(C(C)O)ccc1-c1ncc(-c2nc(NC3CCN(S(C)(=O)=O)CC3)ncc2C(F)(F)F)s1` (stereo not drawn) [Example 7, 1-[3-Methyl-4-[5-[2-[(1-methylsulfonylpiperidin-4-yl)amino]-5-(trifluoromethyl)pyrimidin-4-yl]-1,3-thiazol-2-yl]phenyl]ethanol], the 50% inhibitory concentration (IC50) was no more than 100 nM at CDK4/Cyclin D1, no more than 100 nM at CDK2/Cyclin E2 and 100 to 1000 nM with OVCAR3 p-RB.
As to `Cc1cc(C(C)(C)O)ccc1-c1ncc(-c2nc(NC3CCN(S(C)(=O)=O)CC3)ncc2C(F)(F)F)s1` [Example 8, 2-[3-Methyl-4-[5-[2-[(1-methylsulfonylpiperidin-4-yl)amino]-5-(trifluoromethyl)pyrimidin-4-yl]-1,3-thiazol-2-yl]phenyl]propan-2-ol], the IC50 on CDK4/Cyclin D1 was 100 to 1000 nM; on CDK2/Cyclin E2, no more than 100 nM; in the assay on OVCAR3 p-RB it was greater than 1000 nM.
With `CS(=O)(=O)N1CCC(Nc2ncc(C(F)(F)F)c(-c3cnc(-c4ccc(CO)cc4Cl)s3)n2)CC1` [Example 9, [3-Chloro-4-[5-[2-[(1-methylsulfonylpiperidin-4-yl)amino]-5-(trifluoromethyl)pyrimidin-4-yl]-1,3-thiazol-2-yl]phenyl]methanol], the IC50 on CDK4/Cyclin D1 is no more than 100 nM; on CDK2/Cyclin E2, no more than 100 nM; in the assay with OVCAR3 p-RB it was 100 to 1000 nM.
Regarding `Cc1nc(CO)ccc1-c1ncc(-c2nc(NC3CCN(S(C)(=O)=O)CC3)ncc2C(F)(F)F)s1` [Example 10, [6-Methyl-5-[5-[2-[(1-methylsulfonylpiperidin-4-yl)amino]-5-(trifluoromethyl)pyrimidin-4-yl]-1,3-thiazol-2-yl]pyridin-2-yl]methanol], the IC50 at CDK4/Cyclin D1 is no more than 100 nM; on CDK2/Cyclin E2, no more than 100 nM; in the assay with OVCAR3 p-RB, greater than 1000 nM.
As for `Cc1ccc(-c2ncc(-c3nc(NC4CCN(S(C)(=O)=O)CC4)ncc3C(F)(F)F)s2)c(C)c1` [Example 11, 4-[2-(2,4-dimethylphenyl)-1,3-thiazol-5-yl]-N-(1-methylsulfonyl-piperidin-4-yl)-5-(trifluoromethyl)pyrimidin-2-amine], the IC50 at CDK4/Cyclin D1 is 100 to 1000 nM; at CDK2/Cyclin E2 it was no more than 100 nM; in the assay on OVCAR3 p-RB it was greater than 1000 nM.
Turning to `Cc1cc(CO)ccc1-c1ncc(-c2nc(NC3CCN(S(C)(=O)=O)CC3)ncc2C(F)(F)F)s1` [Example 12, [3-methyl-4-[5-[2-[(1-methylsulfonylpiperidin-4-yl)amino]-5-(trifluoromethyl)pyrimidin-4-yl]-1,3-thiazol-2-yl]phenyl]methanol], the IC50 at CDK4/Cyclin D1 is no more than 100 nM; on CDK2/Cyclin E2, no more than 100 nM; in the assay with OVCAR3 p-RB, 100 to 1000 nM.
Regarding `CNCc1ccc(-c2ncc(-c3nc(NC4CCN(S(C)(=O)=O)CC4)ncc3C(F)(F)F)s2)c(C)c1` [Example 13, 4-[2-[2-Methyl-4-(methylaminomethyl)phenyl]-1,3-thiazol-5-yl]-N-(1-methylsulfonylpiperidin-4-yl)-5-(trifluoromethyl)pyrimidin-2-amine], the IC50 on CDK4/Cyclin D1 is no more than 100 nM; at CDK2/Cyclin E2 it was no more than 100 nM; in the assay on OVCAR3 p-RB, 100 to 1000 nM.
`COC(=O)N(C)Cc1ccc(-c2ncc(-c3nc(NC4CCN(S(C)(=O)=O)CC4)ncc3C(F)(F)F)s2)c(C)c1` [Example 14, methyl N-methyl-N-[[3-methyl-4-[5-[2-[(1-methylsulfonylpiperidin-4-yl)amino]-5-(trifluoromethyl)pyrimidin-4-yl]-1,3-thiazol-2-yl]phenyl]methyl]carbamate]: the results for the IC50 on CDK4/Cyclin D1, at CDK2/Cyclin E2 and in the assay on OVCAR3 p-RB were 100 to 1000 nM, no more than 100 nM and greater than 1000 nM, respectively.
With `Cc1cc(CO)ccc1-c1nc(C)c(-c2nc(NC3CCN(S(C)(=O)=O)CC3)ncc2F)s1` [Example 15, [4-[5-[5-fluoro-2-[(1-methylsulfonylpiperidin-4-yl)amino]pyrimidin-4-yl]-4-methyl-1,3-thiazol-2-yl]-3-methylphenyl]methanol], the IC50 on CDK4/Cyclin D1 was 100 to 1000 nM; at CDK2/Cyclin E2, no more than 100 nM; in the assay on OVCAR3 p-RB, greater than 1000 nM.
For `Cc1nn(CCO)cc1-c1ncc(-c2nc(NC3CCN(S(C)(=O)=O)CC3)ncc2C(F)(F)F)s1` [Example 17, 2-[3-methyl-4-[5-[2-[(1-methylsulfonylpiperidin-4-yl)amino]-5-(trifluoromethyl)pyrimidin-4-yl]-1,3-thiazol-2-yl]pyrazol-1-yl]ethanol], in that order: 100 to 1000 nM, 100 to 1000 nM and 100 to 1000 nM.
On to `Cc1ncc(-c2nc(NC3CCN(S(C)(=O)=O)CC3)ncc2C(F)(F)F)s1` [Example 19, N-(1-methylsulfonylpiperidin-4-yl)-4-(2-methyl-1,3-thiazol-5-yl)-5-(trifluoromethyl)pyrimidin-2-amine], for which the IC50 was no more than 100 nM at CDK4/Cyclin D1, no more than 100 nM at CDK2/Cyclin E2 and 100 to 1000 nM with OVCAR3 p-RB.
Consider `CS(=O)(=O)N1CCC(Nc2ncc(C(F)(F)F)c(-c3cnc(N)s3)n2)CC1` [Example 20, 5-(2-((1-(methylsulfonyl)piperidin-4-yl)amino)-5-(trifluoromethyl)pyrimidin-4-yl)thiazol-2-amine], for which the IC50 at CDK4/Cyclin D1 was no more than 100 nM; at CDK2/Cyclin E2, no more than 100 nM; in the assay on OVCAR3 p-RB, 100 to 1000 nM.
`CC(=O)Nc1ncc(-c2nc(NC3CCN(S(C)(=O)=O)CC3)ncc2C(F)(F)F)s1` [Example 21, N-(5-(2-((1-(methylsulfonyl)piperidin-4-yl)amino)-5-(trifluoromethyl)pyrimidin-4-yl)thiazol-2-yl)acetamide]: the IC50 on CDK4/Cyclin D1 is 100 to 1000 nM; on CDK2/Cyclin E2, no more than 100 nM; in the assay with OVCAR3 p-RB, 100 to 1000 nM.
Consider `CC(C)N(C)c1ncc(-c2nc(NC3CCN(S(C)(=O)=O)CC3)ncc2C(F)(F)F)s1` [Example 22, N-isopropyl-N-methyl-5-(2-((1-(methylsulfonyl)piperidin-4-yl)amino)-5-(trifluoromethyl)pyrimidin-4-yl)thiazol-2-amine], for which the IC50 on CDK4/Cyclin D1 is no more than 100 nM; at CDK2/Cyclin E2, no more than 100 nM; with OVCAR3 p-RB, 100 to 1000 nM.
As for `CS(=O)(=O)N1CCC(Nc2ncc(C(F)(F)F)c(-c3cnc(CO)s3)n2)CC1` [Example 24, [5-[2-[(1-methylsulfonylpiperidin-4-yl)amino]-5-(trifluoromethyl)pyrimidin-4-yl]-1,3-thiazol-2-yl]methanol], the IC50 is 100 to 1000 nM at CDK4/Cyclin D1, no more than 100 nM at CDK2/Cyclin E2 and greater than 1000 nM in the assay on OVCAR3 p-RB.
